# Measurements: patent US10233201B2, “Class of HDAC inhibitors expands the renal progenitor cells population and improves the rate of recovery from acute kidney injury” (University of Pittsburgh—Of the Commonwealth System of …, priority 2012, dated 2019)
# Legend:
# [1] = test system: proximal convoluted tubule cells; test: Gentamycin-induced AKI in zebrafish larvae: renal cell proliferation (EdU); assay type: in vivo; conditions: 4 μM added 2 days post injection of gentamicin; larvae at 5 days post injection
# Method: FIG. 42A is a graph showing the results of an AKI model using gentamycin-induced injury. AKI is generated as per a recent publication, Cianciolo Cosenitino, C., et al. ((2010) Intravenous microinjections of zebrafish larvae to study acute kidney injury. JoVE August 4 (42), pii: 2079. doi: 10.3791/2079). Four micromolar m4PTB (UPHD-00025) was added to the zebrafish E3 media in 0.5% DMSO at 2 days post injection of gentamicin and the larvae are scored daily for four days (6 days post injection) as alive or dead, with the final data tallied on day 6 post injection FIG. 42B.
# Proliferation of renal cells was examined post AKI for m4PTB in zebrafish larvae (FIG. 43). AKI is generated as above with gentamycin, essentially as described in Example 11. Four μM m4PTB was added 2 days post injection of gentamicin. Zebrafish larvae at 5 days post injection were treated for 1 hour with the thymidine analogue EdU (10 milimolar), which incorporates into dividing (proliferating cells) while the larvae are in the zebrafish E3 media. The larvae where then fixed and processed for histology to count the number of proliferating cells in the proximal convulted tubule (as marked by the antibody 3G8). The number of proliferating cells was divided by the total number of cells in the proximal convoluted tubule to generate the percent of proliferation also known as the proliferation index as shown in FIG. 43.
# [2] = test system: BALB/c mice, severe IR-AKI; test: Severe ischemia-reperfusion AKI (IR-AKI); assay type: in vivo, mouse; conditions: 7 days at 50 mg/ml starting 24 hrs after severe IR
# Method: Surgeries were performed on a water-bath heated platform at 38° C. on 10-12 week old male BALB/c mice. For moderate IR-AKI, mice underwent a right nephrectomy followed by left renal pedicle clamping (800 μm pressure clamp, FST 18052-03). The clamp was released after 26 minutes, and tissue reperfusion was confirmed before completing the surgery. Mice were treated daily with indicated doses of compounds or equivalent volume of 20% 2-hydroxypropyl-β-cyclodextrin in water as vehicle control starting 24 h after injury. Since initial injury with this model is variable, mice were randomly allocated vehicle or m4PTB treatment if their serum creatinine levels were 0.8 to 1.2 mg/dl 24 h post IR injury. Other mice were excluded from further analysis and euthanized. To induce severe IR-AKI, mice underwent left renal pedicle clamping for 30 minutes and delayed contralateral nephrectomy was performed after 8 days.
# For mouse studies, kidney sections were stained using Periodic Acid-Schiff (PAS) to assess renal tubular injury. Tubular injury (casts, dilated tubules, epithelial cell blebbing, and vacuolization, loss of brush borders or nuclei) was scored as described. Sirius red staining was performed using an established protocol used to evaluate renal fibrosis/collagen accumulation in kidney sections. To quantify Sirius red staining we used an Olympus BX-41 microscope equipped with an Olympus DP-72 digital camera system and polarizing light filter. Results are expressed as the mean percent fibrosis for all of the images per slide region (Sirius red positive/total surface area).
# We used of 2-hydroxypropyl-β-cyclodextrin (CD, Sigma), a low toxicity drug formulation vehicle that has been well characterized and used extensively as a hydrophobic drug delivery vehicle. We could achieve concentrations of up to ˜12 mg/ml of PTBA analogues in 20% CD in water (100 mg/kg in volumes of ˜150-250 μl), and daily IP injections with 200 μl 20% CD in water had no effect on renal functional recovery following IR-AKI. Therefore all studies were performed using compounds dissolved in 20% CD. To assess dosing and biological activity of PTBA analogues in mice, CD1 mice were injected with varying doses of compounds IP and kidneys isolated at different time point for histone extraction and analysis of histone H4 acetylation, a marker of HDAC inhibitor activity, as outlined below. Based on results of these studies, mice were treated daily with 1, 10, 50 or 100 mg/kg of compound or equivalent volume of 20% CD vehicle control starting 24 h after injury.
# ˜30 μl blood was obtained by tail vein bleed at different time points, and serum samples frozen after confirming that they had not undergone hemolysis (which interferes with enzymatic analysis for serum creatinine). Serum creatinine was evaluated in duplicate samples using a commercially available enzymatic cascade assay (Pointe Scientific, requires only ˜7 μl of serum). […] Blood Urea Nitrogen (BUN) was determined in duplicate samples using a colorimetric enzymatic assay kit (Infinity Urea, Thermo Scientific), and spot urinary albumin/creatinine ratios determined using a mouse albumin ELISA and urinary creatinine assay kit (Albuwell and Creatinine Companion, Exocell).
# Compounds 22, 25, 29, 36, and 186 were injected for 7 days at […] starting 24 hrs after severe IR treatment. […] Fibrotic (scar) tissue was measured using Sirus Red after 28 days for various markers of fibrosis.
# [3] = test system: conditionally-immortalized mouse podocyte cell line; test: Podocyte cytotoxicity assay (Cell Titer-Blue); conditions: 72 hours, up to 30 μM
# Method: For the purposes of these experiments, they function as an indicator of renal toxicity. Following 72 hours of treatment with each compound concentrations ranging from 30 μM to 3 nM, podocyte viability was assessed by measuring residual metabolic activity (FIG. 30).
# Mouse podocytes were plated at a density of 6,000 cells per 200 μl in 96-well plates to elicit log-phase growth. The indicated PTBA analogs were added at 30 μM, 10 μM, 1 μM, 300 nM, 100 nM, 30 nM, or 3 nM and incubated at 33° C. for 72 hours. The final DMSO concentration was maintained at 0.2% in all treatments except 30 μM (0.6%). After incubation, cytotoxicity was analyzed using the Cell Titer-Blue Cell Viability Assay (Promega) per manufacturer's instructions. Reagent (20 μl) was added to 100 μl of cells and plates were incubated for 2 hours at 37° C. Fluorescence was read at 79 560Ex/590Em on a Gemini SpectramaxXS (Molecular Devices) plate reader. Viability was calculated as a percentage of the DMSO control, which was considered 100% viability. Data represent the results of three independent experiments using duplicate wells for each condition. E50 values were determined from the transformed and normalized data by non-linear regression.
# [4] = test system: myod1 (somites), fli1a (vasculature), ntla (notochord); test: In situ hybridization for mesodermal markers myod1, fli1a, ntla in 10-somite embryos; assay type: in vivo, zebrafish
# Method: (§1) PTBA was synthesized as described below. Hydroxyurea and aphidicolin were obtained from Sigma-Aldrich.
# (§2) In situ hybridization and immunocytochemistry: In situ hybridization was performed as previously described with some modifications. 142 Hybridization temperature was 65° C. Embryos were blocked in 2% blocking reagent (Roche) with 5% sheep serum in MAB (100 mM maleic acid and 150 mM NaCl [pH 7.5]). Whole-mount immunocytochemistry with 1:25 mouse anti-α6F antibody (Developmental Studies Hybridoma Bank) and 1:100 Cy3 secondary antibody (Jackson ImmunoResearch) was performed as described previously. 108 Embryos were embedded in JB-4 for sectioning per the manufacturer's instructions (Polysciences), sectioned at 5 μm, and mounted with Cytoseal 60 (Richard-Allan Scientific).
# cyp26a1, cmlc2 = test: In situ hybridization for RA-responsive genes in 18-somite embryos; assay type: in vivo, zebrafish; conditions: 3 μM
# Method: as §2
# HDACis are believed to lower the threshold of RA necessary to activate transcription. If PTBA treatment facilitates activation of the RA pathway, then expression of genes responsive to RA signaling should change. […] In a previous study, cmlc2 expression was assessed for RAdependent effects in 18-somite embryos (Keegan, B. R., Feldman, J. L., Begemann, G., Ingham, P. W. & Yelon, D. Retinoic acid signaling restricts the cardiac progenitor pool. Science 307, 247-249, (2005)), therefore embryos were collected at the 18-somite stage for continuity. […]
# pronephros = test: Pronephric markers at 48 hpf (cdh17, NaK-ATPase, wt1a, slc4a4, slc12a1); assay type: in vivo, zebrafish; conditions: 3 μM
# Method: as §1, §2
SMILES,renal cell proliferation (proliferation index) [1],"fibrosis after 28 days (Sirus Red, markers of fibrosis) [2]",serum creatinine at day 9 [2],podocyte viability (% of DMSO control) [3] [%],embryos with unchanged fli1a expression ([4]; 3 μM) [%],"embryos with decreased myod1 expression ([4]; 3 μM PTBA (slightly decreased), 25 μM PBA, 200 nM TSA) [%]","embryos with increased ntla expression ([4]; 3 μM PTBA, 25 μM PBA) [%]","embryos with decreased cmlc2 expression (cyp26a1, cmlc2) [%]","embryos with increased cyp26a1 expression (cyp26a1, cmlc2) [%]",embryos with expansion of cdh17 (pronephros) [%],expansion of slc4a4 (pronephros) [%],expansion of slc12a1 (pronephros) [%],expansion of wt1a (pronephros) [%]
"COC(=O)CCCSc1ccccc1 [UPHD-00025, methyl 4-(phenylsulfanyl) butanoate]",significantly increased,most reduction in fibrosis,better activity,,,,,,,,,,
"O=C(O)CCCSc1ccccc1 [PTBA, 4-(phenylthio)butanoic acid]",,,,≥ 50,97,95,88,100,100,89,92,64,74
